# Literature values in patent US20100240695A1, “[…] PHARMACEUTICAL COMPOSITIONS” (priority 2006, published 2010).
# Settings: average in a patient population
smiles,measurement,value
Cc1ccc(-c2nc3ccc(C)cn3c2CC(=O)N(C)C)cc1 [zolpidem],plasma level below which residual sedative effects are essentially extinguished,below 20 ng/ml
